This note sets out measurements from patent US10961238B2, “Modulators of hedgehog (Hh) signaling pathway” (E-THERAPEUTICS PLC, priority 2016, dated 2021).

The structures appear in SMILES notation.

The subject of one assay is C3H10T1/2 cells. Briefly: C3H assay: differentiation of C3H10T1/2 cells by mSHH, measurement of alkaline phosphatase. It counts as cell-based, mouse. To be noted: C3H10T1/2 cells stimulated with mSHH for 72 hours; alkaline phosphatase activity; read-out: IC50 Ranges.
For the molecule `CC[C@@H](C)OC(=O)N1CC(S(=O)(=O)N2CCC(c3coc4cccnc34)CC2)C1` [Compound 371, [(2R)-butan-2-yl]3-(4-furo[3,2-b]pyridin-3-ylpiperidin-1-yl)sulfonylaze-tidine-1-carboxylate], the half-maximal inhibitory concentration (IC50) (usually the concentration that inhibits the measured activity by half) lay in the range of 10 to 100 nM.

The same assay, now with this note: Mus musculus, C3H 10T1/2; C3H10T1/2 cells stimulated with mSHH for 72 hours; alkaline phosphatase activity; read-out: IC50 Ranges.
Regarding `O=C(Oc1ccc(F)cc1)N1CC(S(=O)(=O)N2CCC(c3ccncc3)CC2)C1` [Compound 280, (4-fluorophenyl) 3-(4-pyridin-4-ylpiperidin-1-yl) sulfonylaze-tidine-1-carboxylate], the half-maximal inhibitory concentration (IC50) lay in the range of 1000 to 10000 nM.

On to `CC(C)(O)c1cccnc1N1CC(S(=O)(=O)N2CCC(c3c[nH]c4ncccc34)CC2)C1` [Compound 255, 2-[2-[3-[4-(1H-pyrrolo[2,3-b]pyridin-3-yl)piperidin-1-yl]sulfonylaze-tidin-1-yl]pyridin-3-yl]propan-2-ol], for which the 50% inhibitory concentration (IC50) lay within 10 to 100 nM.

Regarding `CC(C)(C(=O)N1CC(S(=O)(=O)N2CCC(c3c[nH]c4ncccc34)CC2)C1)C(F)(F)F` [Compound 323, 3,3,3-trifluoro-2,2-dimethyl-1-[3-[4-(1H-pyrrolo[2,3-b]pyridin-3-yl)piperidin-1-yl]sulfonylaze-tidin-1-yl]propan-1-one], the IC50 lay within 10 to 100 nM.

With `Cc1ccc(F)cc1NC(=O)N1CC(S(=O)(=O)N2CCC(c3ccc(Cl)cc3)CC2)C1` [Compound 400, 3-[4-(4-chlorophenyl)piperidin-1-yl]sulfonyl-N-(5-fluoro-2-methylphenyl) azetidine-1-carboxamide], the IC50 lay in the range of 100 to 1000 nM.

As for `COCCOC(=O)N1CC(S(=O)(=O)N2CCC(c3c[nH]c4ncccc34)CC2)C1` [Compound 65, 2-methoxyethyl 3-[4-(1H-pyrrolo[2,3-b]pyridin-3-yl)piperidin-1-yl]sulfonylaze-tidine-1-carboxylate], the IC50 fell in the range of 100 to 1000 nM.

For the molecule `CC(C)(C(=O)N1CC(S(=O)(=O)N2CCC(c3coc4cccnc34)CC2)C1)C(F)(F)F` [Compound 404, 3,3,3-trifluoro-1-[3-(4-furo[3,2-b]pyridin-3-ylpiperidin-1-yl)sulfonylaze-tidin-1-yl]-2,2-dimethylpropan-1-one], the IC50 is 10 to 100 nM.

For the molecule `N#Cc1ccc(C2CCN(S(=O)(=O)C3CN(C(=O)CC(O)(C(F)(F)F)C(F)(F)F)C3)CC2)cc1` [Compound 351], the IC50 was 100 to 1000 nM.

For the molecule `Cc1cc(Cl)ccc1C1CCN(S(=O)(=O)C2CN(C(=O)OC(C)(C)C)C2)CC1` [Compound 302, tert-butyl 3-[4-(4-chloro-2-methylphenyl)piperidin-1-yl]sulfonylaze-tidine-1-carboxylate], the half-maximal inhibitory concentration (IC50) lay in the range of 100 to 1000 nM.

Turning to `O=S(=O)(C1CN(c2nc3ccccc3s2)C1)N1CCC(c2ccncc2)CC1` [Compound 337, 2-[3-(4-pyridin-4-ylpiperidin-1-yl)sulfonylaze-tidin-1-yl]-1,3-benzothiazole], the IC50 lay in the range of 100 to 1000 nM.

In the case of `O=C(NC1(C(F)(F)F)CC1)[C@H]1C[C@@H](S(=O)(=O)N2CCC(c3c[nH]c4ncccc34)CC2)C1` [Compound 297, cis-3-[4-(1H-pyrrolo[2,3-b]pyridin-3-yl)piperidin-1-yl]sulfonyl-N-[1-(trifluoromethyl)cyclopropyl] cyclobutane-1-carboxamide], the concentration for half-maximal inhibition (IC50) was 10 to 100 nM.

As to `COc1cccc(NC(=O)N2CC(S(=O)(=O)N3CCC(c4c[nH]c5ncccc45)CC3)C2)c1` [Compound 275, N-(3-methoxyphenyl)-3-[4-(1H-pyrrolo[2,3-b]pyridin-3-yl)piperidin-1-yl]sulfonylaze-tidine-1-carboxamide], the IC50 lay within 100 to 1000 nM.

In the case of `CC(C)(C)OC(=O)N1CC(S(=O)(=O)N2CCC(c3cnc4n3CCCC4)CC2)C1` [Compound 101, tert-butyl 3-[4-(5,6,7,8-tetrahydroimidazo [1,2-a]pyridin-3-yl)piperidin-1-yl]sulfonylaze-tidine-1-carboxylate], the IC50 lay within 1000 to 10000 nM.

Regarding `Cc1cccnc1N1CC(S(=O)(=O)N2CCC(c3c[nH]c4ncccc34)CC2)C1` [Compound 254, 3-[1-[1-(3-methylpyridin-2-yl)azetidin-3-yl]sulfonylpiper-idin-4-yl]-1H-pyrrolo[2,3-b]pyridine], the 50% inhibitory concentration (IC50) fell in the range of 10 to 100 nM.

For `CC(C)(C)OC(=O)N1CC(S(=O)(=O)N2CCC(c3nc4ccccc4s3)CC2)C1` [Compound 283, tert-butyl 3-[4-(1,3-benzothiazol-2-yl)piperidin-1-yl]sulfonylaze-tidine-1-carboxylate], the IC50 was in the range of 100 to 1000 nM.

Take `CC(C)OC(=O)N1CCC(S(=O)(=O)N2CCC(c3ccncc3)CC2)CC1` [Compound 105, propan-2-yl 4-(4-pyridin-4-ylpiperidin-1-yl)sulfonylpiper-idine-1-carboxylate]: the IC50 lay in the range of 1000 to 10000 nM.

As to `CC(C)(C)OC(=O)N1CCC(S(=O)(=O)N2CCC(c3ccnc4[nH]ccc34)CC2)CC1` [Compound 7, tert-butyl 4-[4-(1H-pyrrolo[2,3-b]pyridin-4-yl)piperidin-1-yl]sulfonylpiper-idine-1-carboxylate], the concentration for half-maximal inhibition (IC50) is 100 to 1000 nM.

As to `CCN(CC)CC(C)(C)CN1CC(S(=O)(=O)N2CCC(c3c[nH]c4ncccc34)CC2)C1` [Compound 145, N,N-diethyl-2,2-dimethyl-3-[3-[4-(1H-pyrrolo[2,3-b]pyridin-3-yl)piperidin-1-yl]sulfonylaze-tidin-1-yl]propan-1-amine], the IC50 is 1000 to 10000 nM.

As for `Cc1c(F)cccc1NC(=O)N1CC(S(=O)(=O)N2CCC(c3c[nH]c4ncccc34)CC2)C1` [Compound 363, N-(3-fluoro-2-methylphenyl)-3-[4-(1H-pyrrolo[2,3-b]pyridin-3-yl)piperidin-1-yl]sulfonylaze-tidine-1-carboxamide], the IC50 is 10 to 100 nM.

In the case of `O=C(NC1(C(F)(F)F)CC1)[C@H]1C[C@@H](S(=O)(=O)N2CCC(c3coc4cccnc34)CC2)C1` [Compound 361, cis-3-(4-furo[3,2-b]pyridin-3-ylpiperidin-1-yl)sulfonyl-N-[1-(trifluoromethyl)cyclopropyl] cyclobutane-1-carboxamide], the IC50 was 10 to 100 nM.

With `Cc1ccc(C2CCN(S(=O)(=O)C3CCN(C(=O)OC(C)(C)C)CC3)CC2)c(C)c1` [Compound 9, tert-butyl 4-[4-(2,4-dimethylphenyl)piperidin-1-yl]sulfonylpiper-idine-1-carboxylate], the IC50 lay in the range of 1000 to 10000 nM.

As for `O=S(=O)(C1CCN(c2ccccc2)CC1)N1CCC(c2ccncc2)CC1` [Compound 113, 4-[1-[(1-Phenyl-4-piperidyl)sulfonyl]-4-piperidyl]pyridine], the IC50 lay in the range of 1000 to 10000 nM.

On to `Cc1cc(C)cc(OC(=O)N2CC(S(=O)(=O)N3CCC(c4c[nH]c5ncccc45)CC3)C2)c1` [Compound 208, (3,5-dimethylphenyl) 3-[4-(1H-pyrrolo[2,3-b]pyridin-3-yl)piperidin-1-yl]sulfonylaze-tidine-1-carboxylate], for which the half-inhibitory concentration (IC50) was in the range of 100 to 1000 nM.

`O=C(OC1CCCCC1)N1CC(S(=O)(=O)N2CCC(c3c[nH]c4cccnc34)CC2)C1` [Compound 41, cyclohexyl 3-[4-(1H-pyrrolo[3,2-b]pyridin-3-yl)piperidin-1-yl]sulfonylaze-tidine-1-carboxylate]: the 50% inhibitory concentration (IC50) lay in the range of 10 to 100 nM.

Consider `Cc1ccc(NC(=O)N2CC(S(=O)(=O)N3CCC(c4ccncc4)CC3)C2)cc1` [Compound 282, N-(4-methylphenyl)-3-(4-pyridin-4-ylpiperidin-1-yl)sulfonylaze-tidine-1-carboxamide], for which the IC50 was in the range of 1000 to 10000 nM.

As for `Cc1noc(C)c1CCN1CC(S(=O)(=O)N2CCC(c3c[nH]c4ncccc34)CC2)C1` [Compound 56, 3,5-Dimethyl-4-[2-[3-[[4-(1H-pyrrolo[2,3-b]pyridin-3-yl)-1-piperidyl]sulfonyl]azetidin-1-yl]ethyl]isoxazole], the IC50 is 10 to 100 nM.

Take `Cc1noc(C)c1NC(=O)N1CC(S(=O)(=O)N2CCC(c3cnc4occc4c3)CC2)C1` [Compound 37, N-(3,5-dimethyl-1,2-oxazol-4-yl)-3-(4-furo[2,3-b]pyridin-5-ylpiperidin-1-yl)sulfonylaze-tidine-1-carboxamide]: the half-inhibitory concentration (IC50) was 1000 to 10000 nM.

`O=S(=O)(C1CN(c2nc3ccccc3s2)C1)N1CCC(c2c[nH]c3ncccc23)CC1` [Compound 312, 2-[3-[4-(1H-pyrrolo[2,3-b]pyridin-3-yl)piperidin-1-yl]sulfonylaze-tidin-1-yl]-1,3-benzothiazole]: the concentration for half-maximal inhibition (IC50) lay in the range of 10 to 100 nM.

With `Cc1noc(C)c1NC(=O)N1CC(S(=O)(=O)N2CCC(c3cccnn3)CC2)C1` [Compound 25, N-(3,5-dimethyl-1,2-oxazol-4-yl)-3-(4-pyridazin-3-ylpiperidin-1-yl)sulfonylaze-tidine-1-carboxamide], the IC50 was in the range of 1000 to 10000 nM.

In the case of `O=C(OC1CCOCC1)N1CC(S(=O)(=O)N2CCC(c3ccc(Cl)cc3)CC2)C1` [Compound 320, oxan-4-yl 3-[4-(4-chlorophenyl)piperidin-1-yl]sulfonylaze-tidine-1-carboxylate], the 50% inhibitory concentration (IC50) was in the range of 100 to 1000 nM.

`CC(C)C(CO)NC(=O)N1CCC(S(=O)(=O)N2CCC(c3c[nH]c4ncccc34)CC2)C1` (racemic) [Compound 149, N-(1-hydroxy-3-methylbutan-2-yl)-3-[4-(1H-pyrrolo[2,3-b]pyridin-3-yl)piperidin-1-yl]sulfonylpyrr olidine-1-carboxamide]: the half-maximal inhibitory concentration (IC50) was 10 to 100 nM.

`Cc1noc(C)c1CC(=O)N1CC(S(=O)(=O)N2CCC(c3ccc(F)cc3)CC2)C1` [Compound 342, 2-(3,5-dimethyl-1,2-oxazol-4-yl)-1-[3-[4-(4-fluorophenyl)piperidin-1-yl]sulfonylazetidin-1-yl]ethanone]: the half-maximal inhibitory concentration (IC50) was 10 to 100 nM.

Consider `O=C(OC1CCCCC1)N1CC(S(=O)(=O)N2CCC(c3c[nH]c4nccnc34)CC2)C1` [Compound 44, cyclohexyl 3-[4-(5H-pyrrolo[2,3-b]pyrazin-7-yl)piperidin-1-yl]sulfonylaze-tidine-1-carboxylate], for which the IC50 was 10 to 100 nM.

For `CCN(CC)CCOC(=O)N1CC(S(=O)(=O)N2CCC(c3c[nH]c4ncccc34)CC2)C1` [Compound 52, 2-(diethylamino) ethyl 3-[4-(1H-pyrrolo [2,3-b]pyridin-3-yl)piperidin-1-yl]sulfonylaze-tidine-1-carboxylate], the IC50 is 100 to 1000 nM.
